# Experiments:
# MV4-11 [1] = assay: Antiproliferative activity against human MV4-11 cells assessed as reduction in cell viability incubated for 72 hrs by CellTiter-Glo luminescent cell viability assay; format: functional, cell-based; details: MV4-11, 72 h
# [2] = biological target: T1, Bromodomain-containing protein 4 (Homo sapiens, UniProt O60885); assay: Inhibition of BRD4 bromodomain 1/2 (unknown origin) by alphascreen assay
# [3] = biological target: T1, Bromodomain-containing protein 4; assay: Inhibition of BRD4 (unknown origin) at 1 uM relative to control
# HCT-116 = assay: Antiproliferative activity against human HCT116 cells; format: functional, cell-based
# SW480 = assay: Antiproliferative activity against human SW480 cells; format: functional, cell-based
# DU-145 = assay: Antiproliferative activity against human DU145 cells; format: functional, cell-based
# CAPAN-1 = assay: Antiproliferative activity against human Capan1 cells; format: functional, cell-based
# BT-474 = assay: Antiproliferative activity against human BT474 cells; format: functional, cell-based
# L02 = assay: Cytotoxicity against human LO2 cells at 0.5 to 40 uM incubated for 72 hrs by MTT assay; format: cell-based; details: l02, 72 h
# [4] = biological target: T1, Bromodomain-containing protein 4; assay: Inhibition of BRD4 in human MV4-11 cells assessed as downregulation of c-Myc protein expression incubated for 48 hrs by Western blot method; format: cell-based
# MV4-11 [5] = assay: Induction of cell cycle arrest in human MV4-11 cells assessed as increase in accumulation at G0/G1 phase incubated for 48 hrs by PI staining based flow cytometric analysis; format: functional
smiles,measurement,setting,value
CNc1cc(-c2ccc3cnn(Cc4ccc(F)cc4)c3c2)cn(C)c1=O,IC50,MV4-11 [1],2390 nM
same,IC50,[2],1400 nM
Cc1noc(C)c1-c1ccc2c(Nc3ccc(F)cc3)nn(C3CCCCO3)c2c1 (centres undefined),inhibition,[3],< 20%
same,IC50,MV4-11 [1],9900 nM
CNc1cc(-c2ccc3cnn(Cc4ccc(C)cc4)c3c2)cn(C)c1=O,IC50,MV4-11 [1],3280 nM
same,IC50,[2],1600 nM
Cc1ccc(Cn2nc(Nc3ccc(C#N)cc3)c3ccc(-c4c(C)noc4C)cc32)cc1,inhibition,[3],< 20%
same,IC50,MV4-11 [1],5800 nM
CNc1cc(-c2ccc3cnn(Cc4ccc(OC)c(F)c4)c3c2)cn(C)c1=O,IC50,MV4-11 [1],4980 nM
same,IC50,[2],1400 nM
COc1cc(F)ccc1Nc1nn(C2CCCCO2)c2cc(-c3c(C)noc3C)ccc12 (centres undefined),inhibition,[3],< 20%
same,IC50,MV4-11 [1],8500 nM
COc1ccc(Nc2nn(Cc3ccc(C)cc3)c3cc(-c4c(C)noc4C)ccc23)cc1,inhibition,[3],< 20%
same,IC50,MV4-11 [1],11900 nM
COc1ccc(C)c(C2CN(Cc3ccc(F)cc3)c3nc(-c4c(C)noc4C)ncc32)c1 (centres undefined),inhibition,[3],< 20%
CNc1cc(-c2ccc3cnn(CC4CCCCC4)c3c2)cn(C)c1=O,IC50,MV4-11 [1],2690 nM
same,IC50,[2],1810 nM
CNc1cc(-c2ccc3cnn(Cc4cc(OC)cc(OC)c4)c3c2)cn(C)c1=O,IC50,MV4-11 [1],190 to 200 nM
same,IC50,[2],550 nM
same,IC50,HCT-116,2900 nM
same,IC50,SW480,7400 nM
same,IC50,DU-145,2600 nM
same,IC50,CAPAN-1,3800 nM
same,IC50,BT-474,8600 nM
CNc1cc(-c2ccc3cnn(Cc4ccc(C(F)(F)F)cc4)c3c2)cn(C)c1=O,IC50,MV4-11 [1],4370 nM
same,IC50,[2],2400 nM
CNc1cc(-c2ccc3cnn(Cc4ccc(F)c([N+](=O)[O-])c4)c3c2)cn(C)c1=O,IC50,MV4-11 [1],130 nM
same,IC50,[2],800 nM
same,IC50,HCT-116,2600 nM
same,IC50,SW480,10100 nM
same,IC50,DU-145,3400 nM
same,IC50,CAPAN-1,4000 nM
same,IC50,BT-474,6500 nM
COc1ccc(CN2CC(c3ccc(O)cc3)c3cnc(-c4c(C)noc4C)nc32)cc1 (centres undefined),inhibition,[3],< 20%
CCOC(=O)Cn1ncc2ccc(-c3cc(NC)c(=O)n(C)c3)cc21,IC50,MV4-11 [1],8770 nM
same,IC50,[2],1900 nM
Cc1sc2c(c1C)C(c1ccc(Cl)cc1)=N[C@@H](CC(=O)OC(C)(C)C)c1nnc(C)n1-2,IC50,MV4-11 [1],60 to 90 nM
same,IC50,HCT-116,400 nM
same,IC50,SW480,14100 nM
same,IC50,DU-145,200 nM
same,IC50,CAPAN-1,800 nM
same,IC50,BT-474,1700 nM
COc1cc2cnn(Cc3ccc(F)cc3)c2cc1-c1c(C)noc1C,inhibition,[3],45%
same,IC50,MV4-11 [1],1900 nM
COc1ccc(Cn2nc(Nc3cccc(C(C)C)c3)c3ccc(-c4c(C)noc4C)cc32)cc1,inhibition,[3],< 20%
same,IC50,MV4-11 [1],8100 nM
Cc1noc(C)c1-c1ccc(-n2ncc3ccc(-c4c(C)noc4C)cc32)c(Cl)c1,inhibition,[3],33%
same,IC50,MV4-11 [1],2800 nM
CCNc1cc(-c2ccc3cnn(Cc4ccc(F)cc4)c3c2)cn(C)c1=O,IC50,MV4-11 [1],5650 nM
same,IC50,[2],2250 nM
CNc1cc(-c2ccc3cnn(Cc4ccc(OC)cc4)c3c2)cn(C)c1=O,IC50,MV4-11 [1],2700 nM
same,IC50,[2],1600 nM
CCNc1cc(-c2ccc3cnn(Cc4cc(OC)cc(OC)c4)c3c2)cn(C)c1=O,IC50,MV4-11 [1],2590 nM
same,IC50,[2],1810 nM
CNc1cc(-c2ccc3cnn(CC4CC4)c3c2)cn(C)c1=O,IC50,MV4-11 [1],3450 nM
same,IC50,[2],1960 nM
Cc1noc(C)c1-c1ccc2c(Nc3ccc(F)cc3)n[nH]c2c1,inhibition,[3],< 20%
same,IC50,MV4-11 [1],7800 nM
Cc1ccc(Cn2nc(Nc3ccc(F)cc3)c3ccc(-c4c(C)noc4C)cc32)cc1,inhibition,[3],< 20%
Cc1noc(C)c1-c1ccc2c(c1)c(Nc1ccc(F)cc1)nn2C1CCCCO1 (centres undefined),inhibition,[3],< 20%
COc1cc(Nc2nn(C3CCCCO3)c3cc(-c4c(C)noc4C)ccc23)ccc1F (centres undefined),inhibition,[3],< 20%
same,IC50,MV4-11 [1],9300 nM
COc1ccc(Cn2nc(Nc3ccc(F)cc3)c3ccc(-c4c(C)noc4C)cc32)cc1,inhibition,[3],< 20%
same,IC50,MV4-11 [1],9100 nM
Cc1noc(C)c1-c1ccc2c(Nc3ccc(Cl)cc3)nn(C3CCCCO3)c2c1 (centres undefined),inhibition,[3],< 20%
same,IC50,MV4-11 [1],7400 nM
CNc1cc(-c2ccc3cnn(Cc4ccc(F)c(F)c4)c3c2)cn(C)c1=O,IC50,MV4-11 [1],320 nM
same,IC50,[2],860 nM
same,IC50,HCT-116,3000 nM
same,IC50,SW480,8400 nM
same,IC50,DU-145,4800 nM
same,IC50,CAPAN-1,3700 nM
same,IC50,BT-474,8800 nM
same,Activity,L02,Non-Toxic
same,inhibition,[4],Dose-dependent effect
same,Activity,MV4-11 [5],Dose-dependent effect
COc1cc(F)ccc1Nc1nn(C2CCCCO2)c2ccc(-c3c(C)noc3C)cc12 (centres undefined),inhibition,[3],< 20%
same,IC50,MV4-11 [1],17500 nM
Cc1ccc(Cn2nc(Nc3ccc(C(F)(F)F)cc3)c3ccc(-c4c(C)noc4C)cc32)cc1,inhibition,[3],< 20%
